Literature values, collected in patent US20070025918A1, “Magnetic resonance imaging (MRI) agents: water soluble carbon-13 enriched fullerene and carbon nanotubes for use with dynamic nuclear polarization” (General Electric Company, priority 2005, published 2007).

Experiments:
[1] = THF and acetone

- solubility in water: virtually insoluble
- solubility in organic solvents [1]: soluble
Substance: C60F60
